Several values for one entry are separate records, joined by “and”; a condition that tells them apart may be missing. Equal values may be shown once. Read-outs that look alike come from different tables or passages of the source.
Experiments:
[1] = biological target: T1, NET (Homo sapiens, UniProt P23975); test: [3H]norepinephrine uptake inhibition in HEK 293 cells overexpressing human NET; format: cell-based
[2] = biological target: T2, DAT (Homo sapiens, UniProt Q01959); test: [3H]dopamine uptake inhibition in HEK 293 cells overexpressing human DAT; format: cell-based; conditions: for increase of dopamine uptake: anomalous increase at some concentrations, non-sigmoidal curves; for DAT/SERT ratio: 1/DAT IC50 : 1/SERT IC50, mean and 95% confidence interval
[3] = biological target: human 5-HT transporter (SERT) (Homo sapiens, UniProt P31645); test: [3H]5-HT uptake inhibition in HEK 293 cells overexpressing human SERT; format: cell-based
[4] = biological target: T1, NET; test: Radioligand binding, N-methyl-[3H]nisoxetine displacement
[5] = biological target: T2, DAT; test: Radioligand binding, [3H]WIN35,428 displacement
[6] = biological target: SERT (Homo sapiens, UniProt P31645); test: Radioligand binding, [3H]citalopram displacement
[7] = biological target: dopamine D2 receptors (Homo sapiens, UniProt P14416); test: Radioligand binding, [3H]spiperone displacement
[8] = biological target: T3, α1 adrenergic receptor (α1A) (Homo sapiens, UniProt P35348); test: Radioligand binding, [3H]prazosin displacement
T3 sequence (P35348 1-466): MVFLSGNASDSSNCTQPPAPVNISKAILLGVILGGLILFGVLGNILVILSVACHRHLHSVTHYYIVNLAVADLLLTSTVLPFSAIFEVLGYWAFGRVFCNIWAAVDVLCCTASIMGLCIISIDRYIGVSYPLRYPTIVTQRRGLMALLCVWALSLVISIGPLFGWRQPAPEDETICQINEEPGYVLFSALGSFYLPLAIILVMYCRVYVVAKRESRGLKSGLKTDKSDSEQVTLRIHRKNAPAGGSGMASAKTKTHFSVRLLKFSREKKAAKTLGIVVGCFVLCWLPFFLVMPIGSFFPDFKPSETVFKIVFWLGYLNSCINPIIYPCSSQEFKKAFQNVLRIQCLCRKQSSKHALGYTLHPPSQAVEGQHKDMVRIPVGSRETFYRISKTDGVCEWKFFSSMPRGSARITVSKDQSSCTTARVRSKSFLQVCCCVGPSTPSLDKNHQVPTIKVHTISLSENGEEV

[9] = biological target: T4, α2 adrenergic receptor (α2A) (Homo sapiens, UniProt P08913); test: Radioligand binding, [3H]rauwolscine displacement
T4 sequence (P08913 1-465): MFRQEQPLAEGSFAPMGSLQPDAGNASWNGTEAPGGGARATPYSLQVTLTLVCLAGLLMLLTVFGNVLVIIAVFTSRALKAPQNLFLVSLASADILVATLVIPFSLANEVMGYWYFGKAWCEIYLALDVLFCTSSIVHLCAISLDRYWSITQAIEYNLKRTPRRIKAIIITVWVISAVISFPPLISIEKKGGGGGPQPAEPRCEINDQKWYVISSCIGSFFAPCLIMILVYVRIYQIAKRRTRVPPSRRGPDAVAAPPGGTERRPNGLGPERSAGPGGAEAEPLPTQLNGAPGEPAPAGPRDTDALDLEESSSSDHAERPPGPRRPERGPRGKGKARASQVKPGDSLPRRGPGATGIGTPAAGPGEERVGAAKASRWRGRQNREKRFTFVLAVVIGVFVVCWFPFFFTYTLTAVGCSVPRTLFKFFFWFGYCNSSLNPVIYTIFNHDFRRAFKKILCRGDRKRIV

[10] = biological target: T5, 5-HT1A receptor (Homo sapiens, UniProt P08908); test: Radioligand binding, [3H]8-hydroxy-2-
T5 sequence (P08908 1-422): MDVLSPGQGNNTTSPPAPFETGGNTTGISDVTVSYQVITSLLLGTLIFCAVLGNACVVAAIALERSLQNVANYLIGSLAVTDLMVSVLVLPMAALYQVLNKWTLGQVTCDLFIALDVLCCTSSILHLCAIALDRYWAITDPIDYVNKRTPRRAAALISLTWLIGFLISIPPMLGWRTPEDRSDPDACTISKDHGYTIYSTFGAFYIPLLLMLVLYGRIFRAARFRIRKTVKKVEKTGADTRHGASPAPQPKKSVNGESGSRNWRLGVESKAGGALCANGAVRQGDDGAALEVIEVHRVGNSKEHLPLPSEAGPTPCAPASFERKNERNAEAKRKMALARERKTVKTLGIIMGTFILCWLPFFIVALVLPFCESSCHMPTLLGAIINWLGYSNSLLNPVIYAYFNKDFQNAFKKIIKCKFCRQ

[11] = biological target: 5-HT2A receptor (Homo sapiens, UniProt P28223); test: Radioligand binding, [3H]ketanserin displacement
[12] = biological target: T6, 5-HT2C receptor (Homo sapiens, UniProt P28335); test: biochemical; format: binding
T6 sequence (P28335 33-458): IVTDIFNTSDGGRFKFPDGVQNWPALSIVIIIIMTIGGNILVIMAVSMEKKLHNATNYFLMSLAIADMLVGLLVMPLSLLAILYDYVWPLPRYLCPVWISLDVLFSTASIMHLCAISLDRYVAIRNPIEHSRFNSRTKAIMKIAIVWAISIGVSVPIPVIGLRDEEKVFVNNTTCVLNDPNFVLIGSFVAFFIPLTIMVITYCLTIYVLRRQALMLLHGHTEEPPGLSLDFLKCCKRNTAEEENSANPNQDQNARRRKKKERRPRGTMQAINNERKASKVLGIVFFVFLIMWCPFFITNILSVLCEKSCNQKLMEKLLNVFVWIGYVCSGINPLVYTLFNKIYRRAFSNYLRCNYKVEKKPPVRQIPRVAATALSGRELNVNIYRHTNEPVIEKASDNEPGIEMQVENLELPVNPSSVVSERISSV

[13] = biological target: rat TAAR1 (Rattus norvegicus, UniProt Q923Y9); test: Radioligand binding, [3H]RO5166017 displacement
[14] = biological target: mouse TAAR1 (Mus musculus, UniProt Q923Y8); test: Radioligand binding, [3H]RO5166017 displacement
[15] = rat plasma, ref Elmore et al., 2017, cited from earlier work; for amount in plasma as % of parent compound methylone: subcutaneous injections of methylone; for time at which Cmax was reached: subcutaneous methylone
[16] = rats, ref Anizan et al., 2016, cited from earlier work; for maximal concentration as % of the parent compound MDPV: subcutaneous 0.5–2 mg/kg MDPV; for Tmax: subcutaneous injections of 0.5–2 mg/kg MDPV
[17] = healthy human subjects, oral MDMA; ref Schmid et al., 2016; cited from earlier work
[18] = after subcutaneous methylone, ref Stefkova et al., 2017, cited from earlier work
[19] = read-out: SERT IC50, 5-HT uptake inhibition, mean and 95% confidence interval
[20] = read-out: SERT Ki, mean±SD, n=3
[21] = read-out: 5-HT1A Ki, mean±SD, n=3
[22] = read-out: 5-HT2A Ki, mean±SD, n=3
[23] = read-out: 5-HT2c Ki, mean±SD, n=3
[24] = read-out: TAAR1rat Ki, mean±SD, n=3
[25] = read-out: TAAR1mouse Ki, mean±SD, n=3

T1 sequence (P23975 whole entry): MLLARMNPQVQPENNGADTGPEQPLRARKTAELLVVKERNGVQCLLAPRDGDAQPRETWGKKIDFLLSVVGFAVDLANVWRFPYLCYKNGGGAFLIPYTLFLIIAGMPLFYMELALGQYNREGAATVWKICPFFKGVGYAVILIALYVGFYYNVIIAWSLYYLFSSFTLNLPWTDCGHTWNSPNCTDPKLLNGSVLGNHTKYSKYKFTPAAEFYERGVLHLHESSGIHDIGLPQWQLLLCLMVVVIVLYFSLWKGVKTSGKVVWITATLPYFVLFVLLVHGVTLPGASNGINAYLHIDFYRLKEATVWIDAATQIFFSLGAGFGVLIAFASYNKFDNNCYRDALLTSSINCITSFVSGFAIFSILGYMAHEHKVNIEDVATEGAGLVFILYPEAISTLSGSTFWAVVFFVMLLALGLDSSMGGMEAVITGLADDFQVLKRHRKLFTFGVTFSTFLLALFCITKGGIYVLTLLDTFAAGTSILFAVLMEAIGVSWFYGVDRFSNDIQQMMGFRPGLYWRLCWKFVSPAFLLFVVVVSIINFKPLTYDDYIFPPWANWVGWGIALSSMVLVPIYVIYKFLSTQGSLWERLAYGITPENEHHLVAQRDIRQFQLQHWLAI
T2 sequence (Q01959 whole entry): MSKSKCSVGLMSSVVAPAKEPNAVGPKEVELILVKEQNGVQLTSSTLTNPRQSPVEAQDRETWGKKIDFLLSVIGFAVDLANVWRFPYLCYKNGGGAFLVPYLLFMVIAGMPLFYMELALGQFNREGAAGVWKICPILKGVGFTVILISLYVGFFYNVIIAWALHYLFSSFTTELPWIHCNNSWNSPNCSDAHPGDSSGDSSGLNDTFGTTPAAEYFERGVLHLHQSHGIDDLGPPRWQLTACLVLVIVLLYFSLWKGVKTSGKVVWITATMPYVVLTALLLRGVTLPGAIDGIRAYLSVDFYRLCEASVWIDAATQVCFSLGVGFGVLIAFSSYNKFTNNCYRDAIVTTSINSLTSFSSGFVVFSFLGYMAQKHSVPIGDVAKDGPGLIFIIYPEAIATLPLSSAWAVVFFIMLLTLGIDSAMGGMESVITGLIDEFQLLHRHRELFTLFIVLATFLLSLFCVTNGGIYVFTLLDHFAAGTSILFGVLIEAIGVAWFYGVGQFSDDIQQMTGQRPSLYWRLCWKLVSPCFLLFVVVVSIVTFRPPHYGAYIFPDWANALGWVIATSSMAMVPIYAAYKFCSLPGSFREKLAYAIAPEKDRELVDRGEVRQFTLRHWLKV
mouse TAAR1, sequence (Q923Y8 whole entry): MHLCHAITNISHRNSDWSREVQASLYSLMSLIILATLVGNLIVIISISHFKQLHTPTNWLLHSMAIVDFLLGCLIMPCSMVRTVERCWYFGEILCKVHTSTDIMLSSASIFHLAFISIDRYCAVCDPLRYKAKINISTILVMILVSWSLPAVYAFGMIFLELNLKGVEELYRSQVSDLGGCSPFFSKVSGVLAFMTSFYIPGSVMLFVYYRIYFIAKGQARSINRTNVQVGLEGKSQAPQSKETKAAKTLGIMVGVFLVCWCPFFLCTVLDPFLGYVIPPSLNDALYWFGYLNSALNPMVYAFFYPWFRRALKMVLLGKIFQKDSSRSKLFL
dopamine D2 receptors, sequence (P14416 whole entry): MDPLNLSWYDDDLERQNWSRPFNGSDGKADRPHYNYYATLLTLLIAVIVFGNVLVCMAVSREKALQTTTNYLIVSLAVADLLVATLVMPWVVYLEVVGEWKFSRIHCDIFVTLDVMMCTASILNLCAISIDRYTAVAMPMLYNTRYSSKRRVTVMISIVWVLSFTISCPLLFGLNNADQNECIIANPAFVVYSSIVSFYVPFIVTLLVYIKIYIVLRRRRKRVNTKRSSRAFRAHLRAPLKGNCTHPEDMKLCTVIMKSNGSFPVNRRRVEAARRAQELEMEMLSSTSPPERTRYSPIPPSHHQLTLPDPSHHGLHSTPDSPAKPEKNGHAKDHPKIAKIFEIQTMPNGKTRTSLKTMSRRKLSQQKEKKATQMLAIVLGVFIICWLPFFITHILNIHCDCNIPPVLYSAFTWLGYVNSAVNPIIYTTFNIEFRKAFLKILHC
SERT, sequence (P31645 whole entry): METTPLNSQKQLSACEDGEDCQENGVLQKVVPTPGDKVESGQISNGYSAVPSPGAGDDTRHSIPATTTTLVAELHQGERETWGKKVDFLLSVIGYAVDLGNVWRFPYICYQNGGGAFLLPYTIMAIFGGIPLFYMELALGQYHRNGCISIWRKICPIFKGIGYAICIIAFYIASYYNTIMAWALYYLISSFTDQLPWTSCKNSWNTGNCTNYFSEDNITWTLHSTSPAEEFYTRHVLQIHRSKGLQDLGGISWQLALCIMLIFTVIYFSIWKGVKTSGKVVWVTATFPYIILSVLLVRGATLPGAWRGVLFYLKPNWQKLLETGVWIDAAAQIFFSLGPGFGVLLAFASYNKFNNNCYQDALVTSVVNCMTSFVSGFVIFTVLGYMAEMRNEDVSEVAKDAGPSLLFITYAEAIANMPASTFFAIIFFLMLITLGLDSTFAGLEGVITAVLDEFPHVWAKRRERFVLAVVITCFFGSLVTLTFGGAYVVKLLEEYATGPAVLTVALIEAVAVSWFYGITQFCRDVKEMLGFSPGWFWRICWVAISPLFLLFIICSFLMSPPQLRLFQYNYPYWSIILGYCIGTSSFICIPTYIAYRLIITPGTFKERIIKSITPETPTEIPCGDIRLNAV
human 5-HT transporter (SERT), sequence (P31645 whole entry): as above
rat TAAR1, sequence (Q923Y9 whole entry): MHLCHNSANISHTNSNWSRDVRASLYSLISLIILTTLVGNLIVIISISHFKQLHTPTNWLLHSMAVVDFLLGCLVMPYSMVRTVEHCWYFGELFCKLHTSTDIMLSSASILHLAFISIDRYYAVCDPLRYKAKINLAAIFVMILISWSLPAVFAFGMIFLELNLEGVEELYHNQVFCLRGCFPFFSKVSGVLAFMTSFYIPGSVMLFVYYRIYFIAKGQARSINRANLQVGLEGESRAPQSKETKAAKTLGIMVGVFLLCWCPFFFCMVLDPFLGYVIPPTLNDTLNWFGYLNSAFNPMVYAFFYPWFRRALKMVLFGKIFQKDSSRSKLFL
5-HT2A receptor, sequence (P28223 whole entry): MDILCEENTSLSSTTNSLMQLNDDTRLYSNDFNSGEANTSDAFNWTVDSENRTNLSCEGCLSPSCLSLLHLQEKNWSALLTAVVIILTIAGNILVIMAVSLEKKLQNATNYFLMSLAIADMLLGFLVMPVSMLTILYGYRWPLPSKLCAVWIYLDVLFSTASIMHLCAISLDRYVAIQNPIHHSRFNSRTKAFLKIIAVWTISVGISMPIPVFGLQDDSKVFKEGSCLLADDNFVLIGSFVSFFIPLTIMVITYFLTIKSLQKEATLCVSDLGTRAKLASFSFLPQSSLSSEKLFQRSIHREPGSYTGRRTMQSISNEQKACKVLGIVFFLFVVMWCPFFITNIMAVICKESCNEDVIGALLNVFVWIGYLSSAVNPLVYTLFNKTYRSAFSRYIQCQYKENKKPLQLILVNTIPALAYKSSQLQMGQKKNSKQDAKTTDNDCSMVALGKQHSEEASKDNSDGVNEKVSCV

Row | Compound | increase of dopamine uptake [2] | IC50 [3, 19] [µM] | Ki ([4]; read-out: NET Ki, mean±SD, n=3) | Ki ([5]; read-out: DAT Ki, mean±SD, n=3) | Ki [6, 20] [µM] | Ki ([7]; read-out: D2 Ki, mean±SD, n=3) [µM] | Ki ([8]; read-out: α1A Ki, mean±SD, n=3) [µM] | Ki ([9]; read-out: α2A Ki, mean±SD, n=3) [µM] | Ki [10, 21] [µM] | Ki [11, 22] [µM] | Ki [12, 23] | Ki [13, 24] [µM] | Ki [14, 25] [µM] | amount in plasma as % of parent compound methylone [15] | time at which Cmax was reached [15] [min] | Tmax [16] [h] | DAT/SERT ratio [2] | further results
1 | CC(N)Cc1ccc(O)c(O)c1 (stereo not drawn) [HHA, 3,4-Dihydroxyamphetamine] | more than 200% |  |  |  |  |  |  |  |  |  |  |  |  |  |  |  |  | IC50 [1]: 0.18 µM; IC50 [2]: 9.6 µM; IC50 [3]: 63 µM; Ki [4]: 0.79 ± 0.3 µM; Ki [5]: 2.9 ± 0.3 µM; Ki [6]: > 7.4 µM; Ki [7]: > 13 µM; Ki [8]: > 9.5 µM; Ki [9]: 2 ± 0.4 µM; Ki [10]: > 18 µM; Ki [11]: 9.2 ± 1.7 µM; Ki [12]: > 5.1 µM; Ki [13]: 1.9 ± 0.4 µM; Ki [14]: 1.4 ± 0.2 µM
2 | CNC(C)Cc1ccc(O)c(O)c1 (stereo not drawn) [HHMA, 3,4-dihydroxymethamphetamine] | more than 200% | 65 | 0.94 ± 0.14 µM | 1.9 µM | > 7.4 | > 13 | > 9.5 | 1.3 ± 0.1 | > 18 | > 12 | > 5.1 µM | 3 ± 0.3 | > 4.4 |  |  |  |  | 
3 | CNC(C)C(=O)c1ccc(O)c(O)c1 (stereo not drawn) [HHMC, 3,4-Dihydroxymethcathinone] | more than 200% | > 100 | 4 ± 1 µM | 7.1 ± 0.3 µM | > 7.4 | > 13 | > 9.5 | > 4.7 | > 18 | > 12 | > 5.1 µM | 2.2 ± 0.1 | > 4.4 | 10–13% | 60 to 70 |  |  | 
4 | CCCC(C(=O)c1ccc(O)c(O)c1)N1CCCC1 (stereo not drawn) [HHPV, 3,4-dihydroxypyrovalerone] |  | > 100 | 0.11 ± 0.01 µM | 0.02 µM and 0.023 µM | > 7.4 | > 13 | > 9.5 | > 4.7 | 4.3 ± 1.6 | > 12 | > 5.1 µM | > 5.2 | > 4.4 |  |  | 3.43 to 4.28 |  | maximal concentration as % of the parent compound MDPV [16]: 12–19%
5 | CNC(C)Cc1ccc(O)c(OC)c1 (stereo not drawn) [HMMA, 4-hydroxy-3-methoxymethamphetamine] |  | 20 | > 8.8 µM | > 8.5 µM | > 7.4 | > 13 | > 9.5 | > 4.7 | > 18 | > 12 | > 5.1 µM | 0.25 ± 0.04 | 0.45 ± 0.05 |  |  |  | 3.6 (1.4–8.9) | Cmax as % of the Cmax of MDMA [17]: 9–48%; Cmax of unconjugated form as % of the Cmax of MDMA [17]: 1–3%
6 | CNC(C)C(=O)c1ccc(O)c(OC)c1 (stereo not drawn) [HMMC, 4-hydroxy-3-methyoxymethcathinone] |  | > 100 | 4 µM and 4.2 µM | > 8.5 µM | > 7.4 | > 13 | > 9.5 | > 4.7 | > 18 | > 12 | > 5.1 µM | > 5.2 | > 4.4 | 12–22% | 90 to 120 |  |  | maximum dopamine transporter inhibition ([2]; partial inhibition of dopamine uptake): 26%
7 | CCCC(C(=O)c1ccc(O)c(OC)c1)N1CCCC1 (stereo not drawn) [HMPV, 4-hydroxy-3-methyoxypyrovalerone] |  | > 100 | 6.2 ± 0.7 µM | 2 ± 0.2 µM | > 7.4 | > 13 | > 9.5 | > 4.7 | > 17 | > 12 | > 5.1 µM | > 5.2 | > 4.4 |  |  | 3.15 to 3.43 |  | maximal concentration as % of the parent compound MDPV [16]: 53–61%
8 | CC(N)C(=O)c1ccc2c(c1)OCO2 (stereo not drawn) [MDC, 3,4-methylenedioxycathinone] |  | 13 | > 8.8 µM | > 8.5 µM | > 7.4 | > 13 | > 9.5 | > 4.7 | > 17 | > 12 | > 5.1 µM |  | 3.5 ± 0.3 | 10–13% | 30 to 45 |  | 0.38 (0.24–0.59) | delay of serum peak relative to methylone [18]: 30 min; serum level as % of the methylone levels ([18]; peak): about 20%
9 | CNC(C)Cc1ccc2c(c1)OCO2 (stereo not drawn) [MDMA, 3,4-Methylenedioxymethamphetmine, reference compound] |  |  |  |  |  |  |  |  |  |  |  |  |  |  |  |  |  | IC50 [1]: 0.38 µM; IC50 [2]: 21 µM; IC50 [3]: 2.5 µM; Ki [4]: > 8.7 µM; Ki [5]: > 8.5 µM; Ki [6]: > 7.5 µM; Ki [7]: > 13 µM; Ki [11]: 4.6 ± 1.1 µM; Ki [13]: 0.25 ± 0.01 µM; Ki [14]: 3.1 ± 0.7 µM
10 | CCCC(C(=O)c1ccc2c(c1)OCO2)N1CCCC1 (stereo not drawn) [MDPV, 3,4-methylenedioxypyrovalerone, reference compound] |  | 12 | 0.1 ± 0.01 µM | 0.01 µM and 0.011 µM | 2.2 ± 0.1 | > 13 | > 9.5 | > 5 | 12 ± 2 | > 12 | 2 µM and 2.1 µM | > 5 | > 4.7 |  |  | 0.217 to 0.317 | 226 (143–350) | 
